Data from publication doi:10.1101/2025.10.23.684218v2, “Development of a dual chemical probe for the USP16 and HDAC6 zinc-finger ubiquitin-binding domain” (biorxiv, 2025).

Assays:
[1] = target: T1, HDAC6-UBD (HDAC6 1109-1215) (Homo sapiens, UniProt Q9UBN7); assay: biochemical; parameters: SPR, steady-state binding to immobilised biotinylated UBD proteins; conditions: read-out: SPR Kd µM (HDAC6)
T1 sequence (Q9UBN7 1109-1215): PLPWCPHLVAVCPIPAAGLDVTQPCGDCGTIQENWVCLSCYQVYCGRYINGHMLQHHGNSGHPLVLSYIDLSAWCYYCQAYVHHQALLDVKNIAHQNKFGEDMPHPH

[2] = target: T2, USP16-UBD (USP16 25-185) (Homo sapiens, UniProt Q9Y5T5); assay: biochemical; parameters: SPR, steady-state binding to immobilised biotinylated UBD proteins; conditions: read-out: SPR Kd µM (USP16)
T2 sequence (Q9Y5T5 25-185): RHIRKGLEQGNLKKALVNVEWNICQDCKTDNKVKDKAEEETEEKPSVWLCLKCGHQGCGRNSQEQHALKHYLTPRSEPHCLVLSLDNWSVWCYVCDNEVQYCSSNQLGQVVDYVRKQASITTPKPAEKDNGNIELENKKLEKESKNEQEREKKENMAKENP

[3] = target: T2, USP16-UBD (USP16 25-185); assay: SPR, steady state; format: binding
[4] = target: T1, HDAC6-UBD (HDAC6 1109-1215); assay: SPR, steady state; format: binding
[5] = target: T1, HDAC6-UBD (HDAC6 1109-1215); assay: SPR, steady state; format: binding; conditions: pH […] °C, […] DMSO
[6] = target: T2, USP16-UBD (USP16 25-185); assay: SPR, steady state; format: binding; conditions: pH […] °C, […] DMSO

Structure (SMILES)	Kd [3] [µM]	Kd [4] [µM]	other results
Cn1c(CCC(=O)O)nc2ccccc2c1=O [DATR31]			Kd [1]: 2.7 µM; Kd [2]: 130 µM
O=C(O)CCc1nc2ccccc2c(=O)n1CC(=O)NCc1ccccc1 [UBXXML47]			Kd [2]: 11 µM
COc1ccccc1CNC(=O)Cn1c(CCC(=O)O)nc2ccccc2c1=O [UBXXML264]			Kd [2]: 13 µM
COc1ccccc1CNC(=O)Cn1c(CCC(=O)O)nc2c(F)cccc2c1=O [UBXXML299]			Kd [2]: 11 µM
O=C(O)CCc1nc2ccccc2c(=O)n1CC(=O)NCC1CCCCC1 [UBXXML9098]			Kd [2]: 4.8 µM
COc1ccccc1CN(C)C(=O)Cn1c(CCC(=O)O)nc2c(Cl)cccc2c1=O [compound 2]	5.6 ± 2.1		
COc1ccccc1C(C)N(C)C(=O)Cn1c(CCC(=O)O)nc2c(Cl)cccc2c1=O (stereo not shown) [compound 4, 3-(8-chloro-3-(2-((1-(2-methoxyphenyl)ethyl)(methyl)amino)-2-oxoethyl)-4-oxo-3,4-dihydroquinazolin-2-yl)propanoic acid]			KD [5]: complete loss of binding activity for both USP16-UBD and HDAC6-UBD; KD [6]: complete loss of binding activity for both USP16-UBD and HDAC6-UBD

Continued, in another order:

Kd [3] [µM]	Kd [4] [µM]	Structure (SMILES)	other results
0.44	0.05 ± 0.03	COc1ccccc1C(C)NC(=O)Cn1c(CCC(=O)O)nc2c(Cl)cccc2c1=O (stereo not shown) [compound 3, 3-(8-chloro-3-(2-((1-(2-methoxyphenyl)ethyl)amino)-2-oxoethyl)-4-oxo-3,4-dihydroquinazolin-2-yl)propanoic acid]	
7.8 ± 0.99	2.1 ± 0.07	O=C(O)CCc1nc2c(Cl)cccc2c(=O)n1CC(=O)NCC1CCCOC1 (stereo not shown) [compound 6, 3-(8-Chloro-4-oxo-3-(2-oxo-2-(((tetrahydro-2H-pyran-3-yl)methyl)amino)ethyl)-3,4-dihydroquinazolin-2-yl)propanoic Acid]	
2.9 ± 1.2	0.65 ± 0.27	CCOc1ccccc1CNC(=O)Cn1c(CCC(=O)O)nc2c(Cl)cccc2c1=O [compound 7, 3-(8-chloro-3-(2-((2-ethoxybenzyl)amino)-2-oxoethyl)-4-oxo-3,4-dihydroquinazolin-2-yl)propanoic acid]	
1.8 ± 0.96		Cc1ccccc1CNC(=O)Cn1c(CCC(=O)O)nc2c(Cl)cccc2c1=O [compound 8]	
1.2 ± 0.6		O=C(O)CCc1nc2c(Cl)cccc2c(=O)n1CC(=O)NCc1ccccc1Cl [compound 9]	
0.4 ± 0.15		O=C(O)CCc1nc2c(Cl)cccc2c(=O)n1CC(=O)NCc1ccccc1F [compound 10]	
2.5 ± 0.34	32.3 ± 18.2	CN(Cc1ccccc1F)C(=O)Cn1c(CCC(=O)O)nc2c(Cl)cccc2c1=O [compound 11, 3-(8-Chloro-3-(2-((2-fluorobenzyl)(methyl)amino)-2-oxoethyl)-4-oxo-3,4-dihydroquinazolin-2-yl)propanoic Acid]	
0.21 ± 0.03	0.05 ± 0.01	C[C@H](NC(=O)Cn1c(CCC(=O)O)nc2c(Cl)cccc2c1=O)c1ccccc1F [compound 12, (S)-3-(8-Chloro-3-(2-((1-(2-fluorophenyl)ethyl)amino)-2-oxoethyl)-4-oxo-3,4-dihydroquinazolin-2-yl)propanoic Acid]	
2.9 ± 0.49	31.3 ± 2.5	C[C@@H](c1ccccc1F)N(C)C(=O)Cn1c(CCC(=O)O)nc2c(Cl)cccc2c1=O [compound 13, (S)-3-(8-Chloro-3-(2-((1-(2-fluorophenyl)ethyl)(methyl)amino)-2-oxoethyl)-4-oxo-3,4-dihydroquinazolin-2-yl)propanoic Acid]	
< 0.1		CC(NC(=O)Cn1c(CCC(=O)O)nc2c(Cl)cccc2c1=O)c1c(F)cccc1F (stereo not shown) [compound 14, 3-(8-chloro-3-(2-((1-(2,6-difluorophenyl)ethyl)amino)-2-oxoethyl)-4-oxo-3,4-dihydroquinazolin-2-yl)propanoic acid]	
